Reference: patent US20240352183A1, “CONDUCTIVE POLYMER WITH COVALENT CAPTURE ABILITY AND METHODS OF USING SAME” (Duke University, priority 2021, published 2024)

Assay: Solubility of EDOT^PEGn-HTL monomer variants in various solvents
Type: physicochemical
Conditions: compared among three variants (n=1,2,3)
Description: EDOT conjugates with HTL have not been reported previously. Initially a series of EDOT^PEGn-HTL monomers (n=1,2,3, . . . ) were synthesized, wherein it was anticipated that increasing the number of PEG repeats would improve solubility, at the risk of exacerbating sidechain steric interference (FIG. 2A). The HTL modification increases the molecular weight of the monomer. The unmodified EDOT has a molecular weight (MW) of […]; while EDOT^PEGn-HTL has a MW of 551 (n=1), 595 (n=2), 639 (n=3), or MW of 507+44×n. Thus, all of the candidate designs carry substantial steric bulk, which is inevitable.
Several conditions were tested, including various solvents, against the three variants. […] EDOT^PEG3-HTL was unable to be polymerized with PSS as the counter-ion. Specifically, whereas the formation of PEDOT:PSS is accompanied by an unmistakable darkening of a gold surface (i.e., the polymer is visible to the naked eye), no visual indication of polymerization was seen when EDOT was replaced with EDOT^PEG3-HTL (FIG. 3A and FIG. 3B). This held true over a wide range of voltage parameters and concentrations.

With `O=C(CCOCCOCCOCCNC(=O)COCC1COc2cscc2O1)NCCOCCOCCCCCCCl` (stereo not shown) [EDOT^PEG3-HTL, N-(2-(2-((6-chlorohexyl)oxy)ethoxy)ethyl)-3-((1-(2,3-dihydrothieno[3,4-b][1,4]dioxin-2-yl)-4-oxo-2,8,11-trioxa-5-azatridecan-13-yl)oxy)propanamide] the solubility was “most soluble”.
